Tests used:
[1] = Pharmacokinetics through oral administration in normal rats; assay type: in vivo; conditions: 10 mg/5 mL/kg; for Maximum plasma concentration: suspension in 0.5% methyl cellulose containing 0.2% Tween 80
Method: The pharmacokinetics of the compounds of Examples 2, 5 and 25 and BMS-986205 (control) were measured in rats, respectively. The compounds of Examples 2, 5 and 25 and BMS-986205 (control) were each suspended in 0.5% methyl cellulose containing 0.2% Tween 80 and then orally administered to rats at a dose of 10 mg/5 mL/kg. Blood samples were collected from the rat in predetermined times. The concentration of the compound in each sample was analyzed to obtain the blood concentration profiles (FIG. 1).

IDO1 [2] = biological target: T1, IDO1 (Homo sapiens, UniProt P14902); experiment: IDO1 cellular activity using Hela cells (IFN-gamma induced IDO expression, kynurenine absorbance at 480 nm); assay type: cell-based; conditions: IDO induced with interferon gamma 50 ng/ml, 24 h compound incubation, read-out: Inhibitory Activity (IC50)
T1 sequence (P14902 whole entry): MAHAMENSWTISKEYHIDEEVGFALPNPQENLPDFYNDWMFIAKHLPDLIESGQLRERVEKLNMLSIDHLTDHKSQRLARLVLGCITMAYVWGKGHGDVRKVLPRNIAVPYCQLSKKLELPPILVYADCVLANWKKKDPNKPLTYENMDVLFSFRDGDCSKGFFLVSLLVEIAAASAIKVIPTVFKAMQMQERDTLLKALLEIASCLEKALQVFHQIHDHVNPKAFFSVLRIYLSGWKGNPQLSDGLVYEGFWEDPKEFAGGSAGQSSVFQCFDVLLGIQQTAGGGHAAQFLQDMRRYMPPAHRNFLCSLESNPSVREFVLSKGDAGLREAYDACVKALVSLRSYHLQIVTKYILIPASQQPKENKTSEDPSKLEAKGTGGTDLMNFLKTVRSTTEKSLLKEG
Method: Hela cells were seeded at a density of 20000 cells/well in 100 μl of a culture medium (EMEM supplemented with 10% FBS, penicillin 100 U/ml, and streptomycin 100 μg/ml) in a tissue culture-treated 96 well plate. The cells were cultured in a 5% carbon dioxide incubator for 24 hours, treated with recombinant human interferon gamma at the concentration of 50 ng/ml, and then cultured for 48 hours in a 5% carbon dioxide incubator to induce IDO expression.
The activities were measured using IDO1 cellular activity-measuring substrate (IDO1 cellular activity quickDetect supplements catalog: #62000-2, BPS Bioscience). Specifically, an assay medium was prepared by diluting IDO1 assay medium substrate 1 and IDO1 assay medium supplement 2 in a culture medium at a ratio of 1:100, respectively. The test compounds were diluted to the predetermined concentrations in the fresh assay medium. After removing the culture medium using a multi-pipet, 200 μl of each assay medium containing the test material was added into the respective well, followed by incubating in a 5% carbon dioxide incubator for 24 hours. The next day, 140 μl of culture medium from each well was transferred to a new 96-well plate. 10 μl of 6.1N trichloroacetic acid was added into each well, which was then cultured in a 50° C. incubator for 30 minutes. The plate was centrifuged at 2500 rpm for 10 minutes to settle any sediment. A detection reagent solution was prepared by diluting the detection reagent (component D kit, catalog: #62000-2, BPS Bioscience) 50-fold in acetic acid. 100 μl of the supernatant taken from the centrifuged plate was transferred to a new transparent 96-well plate and then 100 μl of the detection reagent solution was added thereto. After reacting at room temperature for 10 minutes, absorbance was measured at 480 nm wavelength. For analysis of the results, the absorbance (At) of the well containing Hela cells in which IDO protein expression was induced without treatment of an inhibitor was 100%; and the absorbance (Ab) of the well containing Hela cells in which IDO protein expression was not induced was 0. The % absorbance was calculated according to the following equation: % Absorbance=(A−Ab)/(At−Ab), A=absorbance of the well treated with the test compound.
The results obtained by calculating the 50% inhibitory concentration (C50) of each compound, from the absorbance values obtained as described above, are shown in Table 1 below.

IDO1 [3] = biological target: T1, IDO1; experiment: IDO1 cellular activity using HEK293 cells transfected with IDO1 expression vector; assay type: cell-based; parameters: host or cells: HEK293 cells, transient transfection with Lipofectamine 2000; conditions: 24 h compound incubation, read-out: Inhibitory Activity (IC50)
Outline: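 HEK293 cells transiently transfected with IDO1 expression vector, expressed 24 h, then given compound in substrate-containing assay medium for 24 h. Medium TCA-treated 30 min at 50° C; product detected by absorbance at 480 nm, scaled between untreated IDO1-expressing cells (100%) and non-expressing cells (0).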

Row | Area under the curve [1] | Time to maximum plasma concentration [1] | Maximum plasma concentration [1] | IC50 (IDO1 [2]) | IC50 (IDO1 [3]) | SMILES
1 |  |  |  | 17.5 nM | 9.1 nM | C[C@H](C[C@H]1CC[C@@H](c2ccnc3ccc(F)cc32)CC1)Nc1nc2ncc(Cl)cc2o1 [Example 31, 6-chloro-N-((R)-1-((cis)-4-(6-fluoroquinolin-4-yl)cyclohexyl)propan-2-yl)oxazolo[4,5-b]pyridin-2-amine]
2 | 16018 ng·h/mL | 2 h | 2170.3 ng/mL | 4.4 nM | 5.2 nM | C[C@H](C[C@H]1CC[C@@H](c2ccnc3ccc(F)cc32)CC1)Nc1nc2ccc(Cl)cc2o1 [Example 25, 6-chloro-N-((R)-1-((cis)-4-(6-fluoroquinolin-4-yl)cyclohexyl)propan-2-yl)benzo[d]oxazol-2-amine]
3 |  |  |  | 23 nM | 7.4 nM | CC[C@H](C[C@H]1CC[C@@H](c2ccnc3ccc(F)cc32)CC1)Nc1nc2ccc(Cl)cc2o1 [Example 27, 6-chloro-N-((R)-1-((cis)-4-(6-fluoroquinolin-4-yl)cyclohexyl)butan-2-yl)benzo[d]oxazol-2-amine]
4 |  |  |  | 12 nM | 8.6 nM | C[C@H](C[C@H]1CC[C@@H](c2ccnc3ccc(F)cc32)CC1)Nc1nc2c(F)cccc2o1 [Example 28, 4-fluoro-N-((R)-1-((cis)-4-(6-fluoroquinolin-4-yl)cyclohexyl)propan-2-yl)benzo[d]oxazol-2-amine]

The next lines start with the compound.

Row | SMILES | Area under the curve [1] | Time to maximum plasma concentration [1] | Maximum plasma concentration [1] | IC50 (IDO1 [2]) | IC50 (IDO1 [3])
5 | C[C@H](C[C@H]1CC[C@@H](c2ccnc3ccc(F)cc32)CC1)Nc1ncnc2cc(Br)ccc12 [Example 2, 7-bromo-N-((R)-1-((cis)-4-(6-fluoroquinolin-4-yl)cyclohexyl)propan-2-yl)quinazolin-4-amine] | 108441.1 ng·h/mL | 1 h | 18050.3 ng/mL | 8.8 nM | 
6 | C[C@H](C[C@H]1CC[C@H](c2ccnc3ccc(F)cc32)CC1)Nc1cc(=O)oc2cc(Br)ccc12 [Example 5, 7-bromo-4-(((R)-1-((trans)-4-(6-fluoroquinolin-4-yl)cyclohexyl)propan-2-yl)amino)-2H-chromen-2-one] | 73460.2 ng·h/mL | 4 h | 4476.3 ng/mL | 16 nM | 
7 | C[C@H](C[C@H]1CC[C@H](c2ccnc3ccc(F)cc32)CC1)Nc1c(F)c(=O)oc2cc(Cl)ccc12 [Example 10, 7-chloro-3-fluoro-4-(((R)-1-((trans)-4-(6-fluoroquinolin-4-yl)cyclohexyl)propan-2-yl)amino)-2H-chromen-2-one] |  |  |  | 10.2 nM | 9.5 nM
8 | C[C@H](C[C@H]1CC[C@@H](c2ccnc3ccc(F)cc32)CC1)Nc1nc2ccc(Cl)cc2s1 [Example 13, 6-chloro-N-((R)-1-((cis)-4-(6-fluoroquinolin-4-yl)cyclohexyl)propan-2-yl)benzo[d]thiazol-2-amine] |  |  |  | 30 nM | 32.6 nM
9 | C[C@H](C[C@H]1CC[C@@H](c2ccnc3ccc(F)cc32)CC1)Nc1nc2c(F)cc(F)cc2s1 [Example 17, 4,6-difluoro-N-((R)-1-((cis)-4-(6-fluoroquinolin-4-yl)cyclohexyl)propan-2-yl)benzo[d]thiazol-2-amine] |  |  |  | 19 nM | 20.6 nM
10 | C[C@@H](C(=O)Nc1ccc(Cl)cc1)C1CCC(c2ccnc3ccc(F)cc23)CC1 (stereo partly shown) [BMS-986205, reference compound] | 3976.7 ng·h/mL | 1 h | 656.8 ng/mL |  | 

— patent US20240174636A1, “NOVEL INDOLEAMINE 2,3-DIOXYGENASE INHIBITORS, PROCESSES FOR THE PREPARATION THEREOF AND PHARMACEUTICAL COMPOSITIONS COMPRISING THE SAME” (YUHAN CORPORATION, priority 2021, published 2024)
